The source of these data is patent publication US6451814B1, “Heterocyclic β-3 adrenergic receptor agonists” (Wyeth, priority 2000, dated 2002).

Each structure is given as a SMILES string. Where a name gives a salt, the structure may show the parent alone. Some results are limits rather than exact numbers.

In turn, `C=CCc1ccccc1OC[C@@H](O)CNCCc1ccc(NC2CCN(C(=O)NCCCCCCCC)CC2)cc1` (as salt: salt) [Example 4, 4-(4-{2-[(2S)-3-(2-Allyl-phenoxy)-2-hydroxy-propylamino]-ethyl}-phenylamino)-piperidine-1-carboxylic Acid Octylamide] gave a melting point of 73 to 80 °C. `CCCCCCCCNC(=O)N1CCC(Nc2ccc(CCNC[C@H](O)COc3ccc(N)nc3)cc2)CC1` (as salt: salt) [Example 5, 4-(4-{2-[(2S)-3-(6-Amino-pyridin-3-yloxy)-2-hydroxy-propylamino]-ethyl}-phenylamino)-piperidine-1-carboxylic Acid Octylamide] had a melting point of 134 to 138 °C. For `COc1cccc(CCNC(=O)N2CCC(Nc3ccc(CCNC[C@H](O)COc4ccc(O)cc4)cc3)CC2)c1` (as salt: salt) [Example 6, 4-(4-{2-[(2S)-2-Hydroxy-3-(4-hydroxy-phenoxy)-propylamino]-ethyl}-phenylamino)-piperidine-1-carboxylic Acid [2-(3-methoxy-phenyl)-ethyl]-amide], the melting point is 103 to 108 °C. For `CCCCCCCCNC(=O)N1CCC(Nc2ccc(CCNCC(O)c3ccc(O)c(C(N)=O)c3)cc2)CC1` (centres unmarked) (as salt: salt) [Example 7, 4-(4-{2-[2-(3-Carbamoyl-4-hydroxy-phenyl)-2-hydroxy-ethylamino]-ethyl}-phenylamino)-piperidine-1-carboxylic Acid Octylamide] the value was 101 to 104 °C. `CCCCCCCCNC(=O)N1CCC(N(C(C)=O)c2ccc(CCNC[C@H](O)COc3ccc(O)cc3)cc2)CC1` (as salt: salt) [Example 8, 4-[Acetyl-(4-{2-[(2S)-2-hydroxy-3-(4-hydroxy-phenoxy)-propylamino]-ethyl}-phenyl)-amino]-piperidine-1-carboxylic Acid Octylamide] yielded a melting point of 71 to 74 °C. For `CNC(=O)N1CCC(Nc2ccc(CCNC[C@H](O)COc3ccc(O)cc3)cc2)CC1` (as salt: salt) [Example 9, 4-(4-{2-[(2S)-2-Hydroxy-3-(4-hydroxy-phenoxy)-propylamino]-ethyl}-phenylamino)-piperidine-1-carboxylic Acid Methylamide] the value was 72 to 77 °C; for `CCNC(=O)N1CCC(Nc2ccc(CCNC[C@H](O)COc3ccc(O)cc3)cc2)CC1` (as salt: salt) [Example 10, 4-(4-{2-[(2S)-2-Hydroxy-3-(4-hydroxy-phenoxy)-propylamino]-ethyl}-phenylamino)-piperidine-1-carboxylic Acid Ethylamide], 81 to 85 °C. `CC(C)NC(=O)N1CCC(Nc2ccc(CCNC[C@H](O)COc3ccc(O)cc3)cc2)CC1` (as salt: salt) [Example 11]: the melting point fell in the range of 89 to 96 °C. In turn, `O=C(NCCCC1CCCC1)N1CCC(Nc2ccc(CCNC[C@H](O)COc3ccc(O)cc3)cc2)CC1` (as salt: salt) [Example 12, 1-4-(4-{2-[(2S)-2-Hydroxy-3-(4-hydroxy-phenoxy)-propylamino]-ethyl}-phenylamino)-piperidine-1-carboxylic Acid (3-cyclopentyl-propyl)-amide] registered a melting point of 71 to 74 °C. For `CCCCCCCCNC(=O)N1CCC(Nc2ccc(CCNC[C@H](O)c3cccc(Cl)c3)cc2)CC1` (as salt: salt) [Example 36, 4-(4-{2-[(2R)-2-(3-Chloro-phenyl)-2-hydroxy-ethylamino]-ethyl}-phenylamino)-piperidine-1-carboxylic Acid Octylamide] the value was 168 to 171 °C; for `CCCCCCCCNC(=O)N1CCC(Oc2ccc(CCNC[C@H](O)COc3ccc(O)cc3)cc2)CC1` (as salt: salt) [Example 54, 4-[4-(2-{[(2S)-2-Hydroxy-3-(4-hydroxyphenoxy)propyl]amino}ethyl)phenoxy]-N-octyl-1-piperidinecarboxamide], 153 to 155 °C; for `O=C(NCc1ccc(F)cc1)N1CCC(Oc2ccc(CCNC[C@H](O)COc3ccc(O)cc3)cc2)CC1` (as salt: salt) [Example 56, 4-(4-{2-[(2S)2-Hydroxy-3-(4-hydroxy-phenoxy)-propylamino]-ethyl}-phenoxy)-piperidine-1-carboxylic Acid 4-fluoro-benzylamide], 160 to 162 °C. The compound `O=C(O)COc1ccc(NC(=O)N2CCC(Nc3ccc(CCNC[C@H](O)COc4ccc(O)cc4)cc3)CC2)cc1` (as salt: salt) [Example 58, (4-{[4-(4-{2-[(2S)-2-Hydroxy-3-(4-hydroxy-phenoxy)-propylamino]-ethyl}-phenylamino)-piperidine-1-carbonyl]-amino}-phenoxy)-acetic Acid] returned a melting point of 175 °C. For `CCCCCCCCNC(=O)N1CCC(Nc2ccc(CCNC[C@H](O)COc3ccc(O)c(NS(C)(=O)=O)c3)cc2)CC1` (as salt: salt) [Example 66, 4-(4-{2-[(2S)-2-Hydroxy-3-(4-hydroxy-3-methanesulfonylamino-phenoxy)-propylamino]-ethyl}-phenylamino)-piperidine-1-carboxylic Acidoctylamide] the value was 115 to 117 °C; for `CCOC(=O)C1CCCN(C(=O)N2CCC(Nc3ccc(CCNC[C@H](O)c4ccc(O)c(NS(C)(=O)=O)c4)cc3)CC2)C1` (stereo partly drawn) (as salt: salt) [Example 78, 1-[[4-[[4-[2-[[(2R)-2-Hydroxy-2-[4-hydroxy-3-[(methylsulfonyl)amino]phenyl]ethyl]amino]ethyl]phenyl]amino]-1-piperidinyl]carbonyl]-3-piperidine Carboxylic Acid, Ethyl Ester], 106 to 108 °C; for `CCCCCCCCNC(=O)N1CCC(C(=O)N2CCC(Nc3ccc(CCNC[C@H](O)COc4ccc(O)cc4)cc3)CC2)CC1` (as salt: salt) [Example 92, 4-[4-(4-{2-[(2S)-2-Hydroxy-3-(4-hydroxy-phenoxy)-propylamino]-ethyl}-phenylamino)-piperidine-1-carbonyl]-piperidine-1-carboxylic Acidoctylamide], 88 to 91 °C. `COc1ccc2[nH]c(C(=O)N3CCC(Nc4ccc(CCNCC(O)COc5ccc(O)cc5)cc4)CC3)cc2c1` (centres unmarked) (as salt: salt) [Example 94, [4-(4-{2-[2-Hydroxy-3-(4-hydroxy-phenoxy)-propylamino]-ethyl}-phenylamino)-piperidin-1-yl]-(5-methoxy-1H-indol-2-yl)-methanone] gave a melting point of 101 to 103 °C. For the compound `O=C(c1cc2cc(Br)ccc2[nH]1)N1CCC(Nc2ccc(CCNC[C@H](O)COc3ccc(O)cc3)cc2)CC1` (as salt: salt) [Example 96, (5-Bromo-1H-indol-2-yl)-[4-(4-{2-[(2S)-2-hydroxy-3-(4-hydroxy-phenoxy)-propylamino]-ethyl}-phenylamino)-piperidin-1-yl]-methanone], the melting point lay in the range of 114 to 116 °C. Compound `COc1c(C(=O)N2CCC(Nc3ccc(CCNC[C@H](O)COc4ccc(O)cc4)cc3)CC2)sc2ccccc12` (as salt: salt) [Example 97, [4-(4-{2-[(2S)-2-Hydroxy-3-(4-hydroxy-phenoxy)-propylamino]-ethyl}-phenylamino)-piperidin-1-yl]-(3-methoxy-benzo[b]thiophen-2-yl)-methanone] returned a melting point of 84 to 86 °C. The compound `COc1c(C(=O)N2CCC(Nc3ccc(CCNC[C@H](O)COc4cccc(NC(C)=O)c4)cc3)CC2)sc2ccccc12` (as salt: salt) [Example 98, N-{3-[(2S)-2-Hydroxy-3-(2-{4-[1-(3-methoxy-benzo[b]thiophene-2-carbonyl)-piperidin-4-ylamino]-phenyl}-ethylamino)-propoxy]-phenyl}-acetamide] registered a melting point of 96 to 98 °C.

Turning to `Cc1ccsc1C(=O)N1CCC(Nc2ccc(CCNC[C@H](O)COc3ccc(O)cc3)cc2)CC1` (as salt: salt) [Example 100, [4-(4-{2-[(2S)-2-Hydroxy-3-(4-hydroxy-phenoxy)-propylamino]-ethyl}-phenylamino)-piperidin-1-yl]-(3-methyl-thiophen-2-yl)-methanone], the melting point lay in the range of 88 to 90 °C.

`Cc1ccsc1C(=O)N1CCC(Nc2ccc(CCNC[C@H](O)COc3cccc4[nH]c(=O)[nH]c34)cc2)CC1` (as salt: salt) [Example 101, 4-[(2S)-2-Hydroxy-3-(2-{4-[1-(3-methyl-thiophene-2-carbonyl)-piperidin-4-ylamino]-phenyl}-ethylamino)-propoxy]-1,3-dihydro-benzoimidazol-2-one] came in with a melting point of 128 to 130 °C.

The compound `O=C(c1n[nH]c2ccccc12)N1CCC(Nc2ccc(CCNC[C@H](O)COc3ccc(O)cc3)cc2)CC1` (as salt: salt) [Example 102, [4-(4-{2-[(2S)-2-Hydroxy-3-(4-hydroxy-phenoxy)-propylamino]-ethyl}-phenylamino)-piperidin-1-yl]-(1H-indazol-3-yl)-methanone] showed a melting point of 111 to 113 °C. For `CS(=O)(=O)Nc1cc([C@@H](O)CNCCc2ccc(NC3CCN(C(=O)c4ccc(C(=O)O)cc4)CC3)cc2)ccc1O` (as salt: salt) [Example 105, 4-[4-(4-{2-[(2R)-2-Hydroxy-2-(4-hydroxy-3-methanesulfonylamino-phenyl)-ethylamino]-ethyl}-phenylamino)-piperidine-1-carbonyl]-benzoic Acid], the melting point is over 200 °C. The value for `Cc1ccc(S(=O)(=O)N2CCC(Nc3ccc(CCNC[C@H](O)COc4ccc(O)cc4)cc3)CC2)cc1` (as salt: salt) [Example 112, 4-[(2S)-2-Hydroxy-3-(2-{4-[1-(toluene-4-sulfonyl)-piperidin-4-ylamino]-phenyl}-ethylamino)-propoxy]-phenol] was 89 to 92 °C. The compound `CC(=O)Nc1ccc(S(=O)(=O)N2CCC(Nc3ccc(CCNC[C@H](O)COc4ccc(O)cc4)cc3)CC2)cc1` (as salt: salt) [Example 114, N-{4-[4-(4-{2-[(2S)-2-Hydroxy-3-(4-hydroxy-phenoxy)-propylamino]-ethyl}-phenylamino)-piperidine-1-sulfonyl]-phenyl}-acetamide] had a melting point of 98 to 104 °C.

For orientation: melting point means the temperature of the solid-liquid transition.
